Reference: the NIST ThermoML archive (doi:10.1021/je5004466)
Numbers after ± are expanded uncertainties.

Details: Crystal; visual observation

- Normal melting temperature: 91 ± 2 °C
SMILES: C[n+]1ccn(CCOCCOCCn2cc[n+](C)c2)c1.F[P-](F)(F)(F)(F)F.F[P-](F)(F)(F)(F)F
